Data taken from patent US7723368B2, “Amino-5-[4-(difluoromethoxy)phenyl]-5-phenylimidazolone compounds for the inhibition of beta-secretase” (Wyeth LLC, priority 2007, dated 2010).

Tests used:
human BACE1 = human BACE1 (Homo sapiens, UniProt P56817); assay: BACE1 fluorescent kinetic assay (cleavage of peptide substrate WABC-6); assay type: biochemical; settings: Activity Table, Examples 1-108; 10 nM enzyme, 25 μM substrate WABC-6, pH 4.5, room temperature
Method: Evaluation of BACE1 Binding Affinity of Test Compounds
Fluorescent Kinetic Assays
Dilution and mixing steps: total reaction volume: 100 μL
100 μM substrate dilution in 1×PBS was prepared, and
Fluorescence Readings: Readings at λex 320 nm and λem 420 nm are taken every 40 sec for 30 min at room temperature and the linear slope for substrate cleavage rate (vi) determined.

Sequence of human BACE1 (P56817 46-501): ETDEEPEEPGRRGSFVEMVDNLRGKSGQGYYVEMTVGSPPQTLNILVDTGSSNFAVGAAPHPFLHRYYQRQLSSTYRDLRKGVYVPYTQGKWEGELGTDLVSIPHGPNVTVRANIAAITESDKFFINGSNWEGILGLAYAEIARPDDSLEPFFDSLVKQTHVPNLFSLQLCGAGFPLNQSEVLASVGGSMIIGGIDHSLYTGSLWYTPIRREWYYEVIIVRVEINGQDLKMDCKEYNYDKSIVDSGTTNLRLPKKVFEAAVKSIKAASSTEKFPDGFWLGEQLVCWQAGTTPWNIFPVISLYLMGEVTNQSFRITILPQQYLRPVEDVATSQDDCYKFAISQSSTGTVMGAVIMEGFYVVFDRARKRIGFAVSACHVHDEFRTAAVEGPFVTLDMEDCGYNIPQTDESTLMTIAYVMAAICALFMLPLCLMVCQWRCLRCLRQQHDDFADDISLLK

Row | IC50 (human BACE1) [nM] | melting point [°C] | Compound
1 | 110 to 1000 | 70 to 73 | CN1C(=O)C(c2ccc(OC(F)F)cc2)(c2ccc(F)c(CF)c2)N=C1N (stereo not shown) [Example 17, 2-Amino-5-(4-difluoromethoxy-phenyl)-5-(4-fluoro-3-fluoromethyl-phenyl)-3-methyl-3,5-dihydro-imidazol-4-one]
2 | > 1000 | 85 to 90 | Cc1ccccc1C1(c2ccc(OC(F)F)cc2)N=C(N)N(C)C1=O (stereo not shown) [Example 18, 2-Amino-5-(4-difluoromethoxy-phenyl)-3-methyl-5-o-tolyl-3,5-dihydro-imidazol-4-one]
3 | 110 to 1000 | 49 to 51 | C=CCC(F)c1cccc(C2(c3ccc(OC(F)F)cc3)N=C(N)N(C)C2=O)c1 (stereo not shown) [Example 57, 2-amino-5-[4-(difluoromethoxy)phenyl]-5-[3-(1-fluorobut-3-en-1-yl)phenyl]-3-methyl-3,5-dihydro-4H-imidazol-4-one]
4 | < 100 | 161 to 162 | CN1C(=O)C(c2ccc(OC(F)F)cc2)(c2cccc(OCCCF)c2)N=C1N (stereo not shown) [Example 82, 2-Amino-5-[4-(difluoromethoxy)phenyl]-5-[3-(3-fluoropropox-1-yl)phenyl]-3-methyl-3,5-dihydro-4H-imidazol-4-one]
5 | < 100 | 65 | CN1C(=O)C(c2ccc(OC(F)F)cc2)(c2cccc(CCCCC#N)c2)N=C1N (stereo not shown) [Example 83, 5-(3-{2-Amino-4-[4-(difluoromethoxy)phenyl]-1-methyl-5-oxo-4,5-dihydro-1H-imidazol-4-yl}phenyl)pentanenitrile]
